Results as given in the NIST ThermoML archive (doi:10.1016/j.jct.2004.09.005).
Where “and” joins values, the source holds several entries; their conditions need not be identical. Identical values can stand only once. ± gives the expanded uncertainty stated by the source.

Tests used:
[1] = Crystal; for vapor or sublimation pressure: Calculated from knudsen effusion weight loss; for Normal melting temperature: DTA
[2] = Molar enthalpy of transition or fusion; settings: Crystal; DSC

O=C(O)c1ccccc1Br [2-bromobenzoic acid]
[1]
Settings	vapor or sublimation pressure
327.56 K	9.4e-05 ± 5e-06 kPa and 9.1e-05 ± 5e-06 kPa
330.16 K	0.000127 ± 6e-06 kPa and 0.000126 ± 6e-06 kPa and 0.000125 ± 6e-06 kPa
332.67 K	0.000169 ± 8e-06 kPa and 0.000174 ± 9e-06 kPa and 0.000167 ± 8e-06 kPa
335.15 K	0.000227 ± 1.1e-05 kPa and 0.000223 ± 1.1e-05 kPa and 0.000224 ± 1.1e-05 kPa
337.69 K	0.000297 ± 1.5e-05 kPa and 0.000299 ± 1.5e-05 kPa and 0.000296 ± 1.5e-05 kPa
340.16 K	0.000402 ± 2e-05 kPa and 0.000394 ± 2e-05 kPa and 0.000392 ± 2e-05 kPa
342.63 K	0.000533 ± 2.7e-05 kPa and 0.000524 ± 2.6e-05 kPa
345.16 K	0.000665 ± 3.3e-05 kPa and 0.000698 ± 3.5e-05 kPa and 0.000678 ± 3.4e-05 kPa
347.68 K	0.000908 ± 4.5e-05 kPa and 0.000897 ± 4.5e-05 kPa and 0.000878 ± 4.4e-05 kPa

Settings	Molar enthalpy of transition or fusion [kcal/mol]	Normal melting temperature [°C]
[1]	–	148.5 ± 0.56
[2]	5.93 ± 0.203	–

O=C(O)c1cccc(Br)c1 [3-bromobenzoic acid]
[1]
Settings	vapor or sublimation pressure
327.67 K	0.000111 ± 6e-06 kPa and 0.000113 ± 6e-06 kPa
330.66 K	0.00016 ± 8e-06 kPa and 0.000152 ± 8e-06 kPa
332.64 K	0.0002 ± 1e-05 kPa and 0.000196 ± 1e-05 kPa
335.16 K	0.00025 ± 1.3e-05 kPa and 0.000253 ± 1.3e-05 kPa and 0.000261 ± 1.3e-05 kPa
337.71 K	0.000354 ± 1.8e-05 kPa and 0.000351 ± 1.8e-05 kPa and 0.00035 ± 1.8e-05 kPa
340.14 K	0.000464 ± 2.3e-05 kPa and 0.000451 ± 2.3e-05 kPa and 0.00045 ± 2.3e-05 kPa
342.65 K	0.000596 ± 3e-05 kPa and 0.00059 ± 3e-05 kPa and 0.000584 ± 2.9e-05 kPa
345.15 K	0.000783 ± 3.9e-05 kPa and 0.00077 ± 3.9e-05 kPa and 0.000767 ± 3.8e-05 kPa
347.6 K	0.000995 ± 5e-05 kPa and 0.001004 ± 0.0001 kPa and 0.000982 ± 4.9e-05 kPa

Settings	Molar enthalpy of transition or fusion [kcal/mol]	Normal melting temperature [°C]
[1]	–	156.93 ± 0.45
[2]	5.95 ± 0.134	–

O=C(O)c1ccccc1Cl [2-chlorobenzoic acid]
[1]
Settings	vapor or sublimation pressure
320.16 K	0.000103 ± 5e-06 kPa and 0.000102 ± 5e-06 kPa and 0.0001 ± 5e-06 kPa
322.16 K	0.000127 ± 6e-06 kPa and 0.000126 ± 6e-06 kPa
324.14 K	0.000166 ± 8e-06 kPa and 0.000164 ± 8e-06 kPa and 0.000163 ± 8e-06 kPa
326.14 K	0.000205 ± 1e-05 kPa and 0.000204 ± 1e-05 kPa and 0.000206 ± 1e-05 kPa
329.15 K	0.0003 ± 1.5e-05 kPa and 0.000294 ± 1.5e-05 kPa
332.13 K	0.000417 ± 2.1e-05 kPa and 0.000414 ± 2.1e-05 kPa and 0.00041 ± 2.1e-05 kPa
335.18 K	0.000584 ± 2.9e-05 kPa and 0.000582 ± 2.9e-05 kPa and 0.000576 ± 2.9e-05 kPa
337.14 K	0.000734 ± 3.7e-05 kPa and 0.000721 ± 3.6e-05 kPa
339.15 K	0.000934 ± 4.7e-05 kPa and 0.000935 ± 4.7e-05 kPa and 0.00092 ± 4.6e-05 kPa

Settings	Molar enthalpy of transition or fusion [kcal/mol]	Normal melting temperature [°C]
[1]	–	140.80 ± 0.39
[2]	6.03 ± 0.136	–

O=C(O)c1cccc(Cl)c1 [3-chlorobenzoic acid]
[1]
Settings	vapor or sublimation pressure
320.13 K	0.000109 ± 5e-06 kPa and 0.000106 ± 5e-06 kPa and 0.000104 ± 5e-06 kPa
321.18 K	0.000122 ± 6e-06 kPa and 0.00012 ± 6e-06 kPa and 0.000117 ± 6e-06 kPa
324.17 K	0.000173 ± 9e-06 kPa and 0.000171 ± 9e-06 kPa and 0.00017 ± 9e-06 kPa
327.14 K	0.000241 ± 1.2e-05 kPa and 0.000236 ± 1.2e-05 kPa and 0.000245 ± 1.2e-05 kPa
330.15 K	0.000335 ± 1.7e-05 kPa and 0.000327 ± 1.6e-05 kPa and 0.000324 ± 1.6e-05 kPa
333.17 K	0.000474 ± 2.4e-05 kPa and 0.000472 ± 2.4e-05 kPa and 0.00047 ± 2.4e-05 kPa
336.13 K	0.000655 ± 3.3e-05 kPa and 0.000644 ± 3.2e-05 kPa
339.01 K	0.000896 ± 4.5e-05 kPa and 0.000873 ± 4.4e-05 kPa and 0.000877 ± 4.4e-05 kPa
340.13 K	0.001012 ± 0.0001 kPa and 0.000984 ± 4.9e-05 kPa and 0.00099 ± 5e-05 kPa

Settings	Molar enthalpy of transition or fusion [kcal/mol]	Normal melting temperature [°C]
[1]	–	154.72 ± 0.55
[2]	5.66 ± 0.134	–

O=C(O)c1ccc(Br)cc1 [4-bromobenzoic acid]
[1]
Settings	vapor or sublimation pressure
348.67 K	0.000155 ± 8e-06 kPa and 0.000153 ± 8e-06 kPa and 0.000152 ± 8e-06 kPa
350.14 K	0.000176 ± 9e-06 kPa and 0.00018 ± 9e-06 kPa and 0.000175 ± 9e-06 kPa
351.67 K	0.000202 ± 1e-05 kPa and 0.000205 ± 1e-05 kPa
353.14 K	0.000245 ± 1.2e-05 kPa and 0.00024 ± 1.2e-05 kPa
354.65 K	0.000276 ± 1.4e-05 kPa and 0.000278 ± 1.4e-05 kPa
356.17 K	0.000331 ± 1.7e-05 kPa and 0.000324 ± 1.6e-05 kPa and 0.000326 ± 1.6e-05 kPa
357.67 K	0.000384 ± 1.9e-05 kPa and 0.000389 ± 1.9e-05 kPa and 0.000376 ± 1.9e-05 kPa
359.24 K	0.000448 ± 2.2e-05 kPa and 0.000429 ± 2.1e-05 kPa and 0.000447 ± 2.2e-05 kPa
360.65 K	0.000517 ± 2.6e-05 kPa and 0.000495 ± 2.5e-05 kPa and 0.000512 ± 2.6e-05 kPa
362.22 K	0.000609 ± 3e-05 kPa and 0.000617 ± 3.1e-05 kPa and 0.000611 ± 3.1e-05 kPa
363.63 K	0.000692 ± 3.5e-05 kPa and 0.000703 ± 3.5e-05 kPa and 0.000683 ± 3.4e-05 kPa
365.23 K	0.00082 ± 4.1e-05 kPa and 0.000809 ± 4e-05 kPa
366.65 K	0.000932 ± 4.7e-05 kPa and 0.000909 ± 4.5e-05 kPa

Settings	Molar enthalpy of transition or fusion [kcal/mol]	Normal melting temperature [°C]
[1]	–	253.19 ± 0.84
[2]	7.38 ± 0.163	–
